Experimental data reported in ChEMBL document CHEMBL3596184, “Prostate tumor specific peptide-peptoid hybrid prodrugs” (2015).
Numbered stars: 1 amine (or outer) side, 2 acyl side, 3 side chain; on linkers, the order of the positions; unused ones are H or OH. Square brackets hold non-standard residues; d marks the D form. Peptide text beside a SMILES is read from it. γGlu = O=C(O)[C@H](CCC(=O)[*:2])N[*:1]; Nspe = C[C@H](NCC(=O)O)c1ccccc1; Nlys = NCCCCNCC(=O)O

Columns and labels:
Format in all cases: functional
PC-3 = experiment: Cytotoxicity against human PC3 cells assessed as induction of cell death after 48 hrs by MTS assay; settings: PC-3, 48 h, read-out: LC50 (the source's name)
LNCaP [1] = experiment: Selectivity ratio of LC50 for human PC3 cells to LC50 for human LNCaP cells
LNCaP [2] = experiment: Cytotoxicity against human LNCAP cells assessed as induction of cell death after 48 hrs by MTS assay; settings: read-out: LC50 (the source's name)

SMILES: CC(C)C[C@H](NC(=O)[C@H](CCCCN)NC(=O)[C@H](CO)NC(=O)[C@H](CO)NC(=O)[C@H](Cc1cnc[nH]1)NC(=O)CC[C@H](NC(=O)CC[C@H](N)C(=O)O)C(=O)O)C(=O)N[C@@H](CCC(N)=O)C(=O)N(CCCCN)CC(=O)N(CC(=O)N(CC(=O)N(CCCCN)CC(=O)N(CC(=O)N(CC(=O)N(CCCCN)CC(=O)N(CC(=O)N(CC(=O)N(CCCCN)CC(=O)N(CC(=O)N(CC(N)=O)[C@@H](C)c1ccccc1)[C@@H](C)c1ccccc1)[C@@H](C)c1ccccc1)[C@@H](C)c1ccccc1)[C@@H](C)c1ccccc1)[C@@H](C)c1ccccc1)[C@@H](C)c1ccccc1)[C@@H](C)c1ccccc1 ({γGlu-γGlu}-HSSKLQ[Nlys][Nspe][Nspe][Nlys][Nspe][Nspe][Nlys][Nspe][Nspe][Nlys][Nspe][Nspe]-NH2)
- CC50 (PC-3): 18 µM
- RatioLC50 (LNCaP [1]): 1.8
- CC50 (LNCaP [2]): 10 µM

SMILES: C[C@@H](c1ccccc1)N(CC(N)=O)C(=O)CN(C(=O)CN(CCCCN)C(=O)CN(C(=O)CN(C(=O)CN(CCCCN)C(=O)CN(C(=O)CN(C(=O)CN(CCCCN)C(=O)CN(C(=O)CN(C(=O)CN(CCCCN)C(=O)CC[C@H](NC(=O)CC[C@H](N)C(=O)O)C(=O)O)[C@@H](C)c1ccccc1)[C@@H](C)c1ccccc1)[C@@H](C)c1ccccc1)[C@@H](C)c1ccccc1)[C@@H](C)c1ccccc1)[C@@H](C)c1ccccc1)[C@@H](C)c1ccccc1 ({γGlu-γGlu}-[Nlys][Nspe][Nspe][Nlys][Nspe][Nspe][Nlys][Nspe][Nspe][Nlys][Nspe][Nspe]-NH2)
- CC50 (PC-3): 18 µM
- RatioLC50 (LNCaP [1]): 1.8
- CC50 (LNCaP [2]): 10 µM
